Assay results taken from patent US9765075B2, “Substituted bridged urea analogs as sirtuin modulators” (GLAXOSMITHKLINE LLC, priority 2013, dated 2017).

Biological target: T1, SIRT1 (Homo sapiens, UniProt Q96EB6)
T1 sequence (Q96EB6 1-747): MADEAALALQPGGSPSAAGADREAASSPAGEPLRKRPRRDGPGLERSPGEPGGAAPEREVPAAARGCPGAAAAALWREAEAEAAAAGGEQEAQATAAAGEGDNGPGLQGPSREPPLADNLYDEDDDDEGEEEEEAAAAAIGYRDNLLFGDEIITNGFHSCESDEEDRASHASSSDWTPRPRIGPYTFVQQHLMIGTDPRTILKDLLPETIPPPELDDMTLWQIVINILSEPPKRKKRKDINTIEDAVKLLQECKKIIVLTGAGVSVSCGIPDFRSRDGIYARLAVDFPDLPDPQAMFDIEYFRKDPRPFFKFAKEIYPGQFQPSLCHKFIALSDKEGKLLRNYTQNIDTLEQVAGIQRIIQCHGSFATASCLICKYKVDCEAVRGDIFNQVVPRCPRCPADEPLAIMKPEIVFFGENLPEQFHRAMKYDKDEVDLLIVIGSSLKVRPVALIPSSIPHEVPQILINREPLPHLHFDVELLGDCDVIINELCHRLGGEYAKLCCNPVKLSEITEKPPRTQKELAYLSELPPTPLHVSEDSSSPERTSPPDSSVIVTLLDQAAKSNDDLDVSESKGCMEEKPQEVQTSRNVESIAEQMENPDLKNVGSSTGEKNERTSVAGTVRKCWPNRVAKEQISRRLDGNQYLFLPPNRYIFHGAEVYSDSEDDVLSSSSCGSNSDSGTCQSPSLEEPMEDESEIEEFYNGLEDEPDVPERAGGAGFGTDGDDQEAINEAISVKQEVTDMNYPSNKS
Test: Trp mass spectrometry assay (SIRT1 activation)
Format: biochemical
Conditions: Trp mass spectrometry assay; for Tryp AVG EC1.5 (μM): EC1.5 = concentration giving 150% activation of SIRT1; for Emax: percent maximum fold activation of SIRT1, read-out: Tryp % Fold Act
Procedure, shortened: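 N-His-tagged SIRT1 (10 nM), expressed in E. coli, was incubated with 0.5 μM Ac-RHKK(Ac)W-NH2 peptide and 120 μM NAD+ for 25 min at 25 °C in HEPES pH 7.5 with […]. The reaction was stopped with formic acid and O-acetyl-ADP-ribose or deacetylated peptide was quantified by mass spectrometry. Results are given as EC1.5 and percent maximal activation relative to DMSO control.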

SMILES	Tryp AVG EC1.5 (μM)	Emax [%]
O=C(Nc1ncc(-c2ccccc2)s1)N1c2nc(-c3cccc(C(F)(F)F)c3)ccc2N2CC[C@H]1C2 [Example 734]	B (EC1.5 1-25 μM)	≥ 150
CCCC(=O)c1cccc(NC(=O)N2c3nc(-c4cccc(C(F)(F)F)c4)ccc3N3CC[C@H]2C3)c1 [Example 736]	A (EC1.5<1 μM)	≥ 150
CCCCC(=O)c1cccc(NC(=O)N2c3nc(-c4cccc(C(F)(F)F)c4)ccc3N3CC[C@H]2C3)c1 [Example 737]	A (EC1.5<1 μM)	≥ 150
O=C(Nc1cccc(-c2cnco2)n1)N1c2nc(-c3cncc(F)c3)ccc2N2CC[C@H]1C2 [Example 739]	A (EC1.5<1 μM)	≥ 150
CC(C)C(=O)c1cccc(NC(=O)N2c3nc(-c4cccc(C(F)(F)F)c4)ccc3N3CC[C@H]2C3)c1 [Example 740]	A (EC1.5<1 μM)	≥ 150
O=C(Nc1cccc(-c2cnco2)c1)N1c2nc(N3CCCN(CC(F)(F)F)CC3)ccc2N2CC[C@H]1C2 [Example 741]	A (EC1.5<1 μM)	≥ 150
CN1CCN(c2ccnc(NC(=O)N3c4nc(-c5cccc(C(F)(F)F)c5)ccc4N4CC[C@H]3C4)n2)CC1 [Example 742]	A (EC1.5<1 μM)	≥ 150
O=C(Nc1cc(-c2cnco2)cc(-c2cnco2)c1)N1c2nc(-c3cccc(C(F)(F)F)c3)ccc2N2CC[C@H]1C2 [Example 743]	A (EC1.5<1 μM)	≥ 150
O=C(Nc1nccc(N2CCNCC2)n1)N1c2nc(-c3cccc(C(F)(F)F)c3)ccc2N2CC[C@H]1C2 [Example 745]	B (EC1.5 1-25 μM)	≥ 150
Cc1cc(-c2ccc3c(n2)N(C(=O)Nc2cc(-c4cnco4)ccn2)[C@H]2CCN3C2)ccn1 [Example 746]	A (EC1.5<1 μM)	≥ 150
CN(C)c1ccnc(NC(=O)N2c3nc(-c4cccc(C(F)(F)F)c4)ccc3N3CC[C@H]2C3)n1 [Example 747]	A (EC1.5<1 μM)	≥ 150
Cc1cc(-c2ccc3c(n2)N(C(=O)Nc2cncc(-c4cnco4)c2)[C@H]2CCN3C2)ccn1 [Example 748]	A (EC1.5<1 μM)	≥ 150
CC(C)(C)OC(=O)NCC#Cc1cc(NC(=O)N2c3nc(-c4cccc(C(F)(F)F)c4)ccc3N3CC[C@H]2C3)cc(-c2cnco2)c1 [Example 749]	A (EC1.5<1 μM)	≥ 150
CC(C)(C)OC(=O)NCCCc1ccc(NC(=O)N2c3nc(-c4cccc(C(F)(F)F)c4)ccc3N3CC[C@H]2C3)cc1-c1cnco1 [Example 750]	A (EC1.5<1 μM)	≥ 150
CC(C)(C)OC(=O)NCC#Cc1ccc(NC(=O)N2c3nc(-c4cccc(C(F)(F)F)c4)ccc3N3CC[C@H]2C3)cc1-c1cnco1 [Example 751]	A (EC1.5<1 μM)	≥ 150
CC(C)(C)OC(=O)NCCCc1ccc(NC(=O)N2c3nc(-c4cccc(C(F)(F)F)c4)ccc3N3CCC[C@H]2C3)cc1-c1cnco1 [Example 752]	A (EC1.5<1 μM)	≥ 150
CC(C)(C)OC(=O)NCC#Cc1ccc(NC(=O)N2c3nc(-c4cccc(C(F)(F)F)c4)ccc3N3CCC[C@H]2C3)cc1-c1cnco1 [Example 753]	A (EC1.5<1 μM)	≥ 150
CC(C)(C)OC(=O)NCCCc1cc(NC(=O)N2c3nc(-c4cccc(C(F)(F)F)c4)ccc3N3CCC[C@H]2C3)cc(-c2cnco2)c1 [Example 754]	A (EC1.5<1 μM)	
NCc1cccc(NC(=O)N2c3nc(-c4cccc(C(F)(F)F)c4)ccc3N3CC[C@H]2C3)c1 [Example 755]	B (EC1.5 1-25 μM)	≥ 150
NCCCCCC(=O)NCc1cccc(NC(=O)N2c3nc(-c4cccc(C(F)(F)F)c4)ccc3N3CCC[C@H]2C3)c1 [Example 756]	A (EC1.5<1 μM)	≥ 150
NCc1cccc(NC(=O)N2c3nc(-c4cccc(C(F)(F)F)c4)ccc3N3CCC[C@H]2C3)c1 [Example 757]	A (EC1.5<1 μM)	≥ 150
NCCCCCC(=O)NCc1cccc(NC(=O)N2c3nc(-c4cccc(C(F)(F)F)c4)ccc3N3CC[C@H]2C3)c1 [Example 758]	A (EC1.5<1 μM)	≥ 150

SMILES	Tryp AVG EC1.5 (μM)	Emax [%]
CC(C)(C)OC(=O)NCCCc1cc(NC(=O)N2c3nc(-c4cccc(C(F)(F)F)c4)ccc3N3CC[C@H]2C3)cc(-c2cnco2)c1 [Example 759]	B (EC1.5 1-25 μM)	≥ 150
CC(C)(C)OC(=O)NCC#Cc1cc(NC(=O)N2c3nc(-c4cccc(C(F)(F)F)c4)ccc3N3CCC[C@H]2C3)cc(-c2cnco2)c1 [Example 760]	A (EC1.5<1 μM)	≥ 150
FC(F)(F)c1cccc(-c2ccc3c(n2)N(C(=S)Nc2cccc(-c4cnco4)c2)[C@H]2CCN3C2)c1 [Example 763]	A (EC1.5<1 μM)	≥ 150
NCCCc1ccc(NC(=O)N2c3nc(-c4cccc(C(F)(F)F)c4)ccc3N3CC[C@H]2C3)cc1-c1cnco1 [Example 765]	A (EC1.5<1 μM)	≥ 150
NCC#Cc1ccc(NC(=O)N2c3nc(-c4cccc(C(F)(F)F)c4)ccc3N3CC[C@H]2C3)cc1-c1cnco1 [Example 766]	A (EC1.5<1 μM)	≥ 150
NCCCc1ccc(NC(=O)N2c3nc(-c4cccc(C(F)(F)F)c4)ccc3N3CCC[C@H]2C3)cc1-c1cnco1 [Example 767]	A (EC1.5<1 μM)	≥ 150
NCCCc1cc(NC(=O)N2c3nc(-c4cccc(C(F)(F)F)c4)ccc3N3CC[C@H]2C3)cc(-c2cnco2)c1 [Example 770]	A (EC1.5<1 μM)	≥ 150
N=C(N)NCc1ncc(-c2cccc(NC(=O)N3c4nc(-c5cccc(C(F)(F)F)c5)ccc4N4CC[C@H]3C4)c2)o1 [Example 776]	A (EC1.5<1 μM)	≥ 150
N=C(N)NCc1ccc(NC(=O)N2c3nc(-c4cccc(C(F)(F)F)c4)ccc3N3CCC[C@H]2C3)cc1 [Example 777]	A (EC1.5<1 μM)	≥ 150
C[C@@H](N)CS(=O)(=O)c1cccc(-c2ccc3c(n2)N(C(=O)Nc2cc(-c4ccnn4C)nc(-c4ccnn4C)c2)[C@H]2CCN3C2)c1 [Example 780]	A (EC1.5<1 μM)	≥ 150
O=C(Nc1ccccn1)N1c2cc(-c3cccc(C(F)(F)F)c3)ccc2N2CC[C@H]1C2 [Example 785]	C (EC1.5>25 μM)	< 150
O=C(Nc1cccc(-c2cnco2)c1)N1c2cc(-c3cccc(C(F)(F)F)c3)ccc2N2CC[C@H]1C2 [Example 786]	B (EC1.5 1-25 μM)	≥ 150
CC(C)(C)OC(=O)NCCNC(=N)c1ccc(NC(=O)N2c3nc(-c4cccc(C(F)(F)F)c4)ccc3N3CCC[C@H]2C3)cc1 [Example 788]	A (EC1.5<1 μM)	≥ 150
CC(=O)NCc1ccc(NC(=O)N2c3nc(-c4cccc(C(F)(F)F)c4)ccc3N3CCC[C@H]2C3)cc1 [Example 790]	A (EC1.5<1 μM)	≥ 150
N=C(NCCN)c1ccc(NC(=O)N2c3nc(-c4cccc(C(F)(F)F)c4)ccc3N3CCC[C@H]2C3)cc1 [Example 792]	A (EC1.5<1 μM)	≥ 150
CC(C)(C)OC(=O)NCc1ccc(NC(=O)N2c3nc(-c4cccc(C(F)(F)F)c4)ccc3N3CC[C@H]2C3)cc1 [Example 793]	B (EC1.5 1-25 μM)	≥ 150
CC(C)(C)OC(=O)NCc1cccc(-c2ccc3c(n2)C(C(=O)Nc2ccncc2)[C@H]2CCN3C2)c1 (stereo partly shown) [Example 794]	B (EC1.5 1-25 μM)	≥ 150
CC(C)(C)OC(=O)NCc1cccc(-c2ccc3c(n2)N(C(=O)Nc2ccncc2)[C@H]2CCCN3C2)c1 [Example 795]	B (EC1.5 1-25 μM)	≥ 150
O=C(NCc1ccc(NC(=O)N2c3nc(-c4cccc(C(F)(F)F)c4)ccc3N3CC[C@H]2C3)cc1)OC[C@@H]1[C@@H]2CCC#CCC[C@@H]21 [Example 796]	B (EC1.5 1-25 μM)	≥ 150
C#CCOc1cccc(NC(=O)N2c3nc(-c4cccc(C5(C(F)(F)F)N=N5)c4)ccc3N3CC[C@H]2C3)c1 [Example 797]	A (EC1.5<1 μM)	≥ 150
C#CCCCNc1nccc(NC(=O)N2c3nc(-c4cccc(C5(C(F)(F)F)N=N5)c4)ccc3N3CC[C@H]2C3)n1 [Example 798]	A (EC1.5<1 μM)	≥ 150
